{
  "source": "ChEMBL document CHEMBL1154905",
  "about": "“The taiwaniaquinoids: a review” (J Nat Prod, 2010)",
  "key": {"human gammaherpesvirus 4 [1]": {"system": "human gammaherpesvirus 4", "assay": "Inhibition of TPA-induced EBV early antigen activation at 32 uM"}, "human gammaherpesvirus 4 [2]": {"system": "human gammaherpesvirus 4", "assay": "Inhibition of TPA-induced EBV early antigen activation at 0.32 uM"}, "human gammaherpesvirus 4 [3]": {"system": "human gammaherpesvirus 4", "assay": "Inhibition of TPA-induced EBV early antigen activation at 3.2 uM"}, "human gammaherpesvirus 4 [4]": {"system": "human gammaherpesvirus 4", "assay": "Inhibition of TPA-induced EBV early antigen activation at 16 uM"}, "KB": {"system": "KB", "assay": "Cytotoxicity against human KB cells", "format": "functional, cell-based"}, "Aromatase [5]": {"target": "T1, Aromatase (Homo sapiens, UniProt P11511)", "T1 sequence (P11511 whole entry)": "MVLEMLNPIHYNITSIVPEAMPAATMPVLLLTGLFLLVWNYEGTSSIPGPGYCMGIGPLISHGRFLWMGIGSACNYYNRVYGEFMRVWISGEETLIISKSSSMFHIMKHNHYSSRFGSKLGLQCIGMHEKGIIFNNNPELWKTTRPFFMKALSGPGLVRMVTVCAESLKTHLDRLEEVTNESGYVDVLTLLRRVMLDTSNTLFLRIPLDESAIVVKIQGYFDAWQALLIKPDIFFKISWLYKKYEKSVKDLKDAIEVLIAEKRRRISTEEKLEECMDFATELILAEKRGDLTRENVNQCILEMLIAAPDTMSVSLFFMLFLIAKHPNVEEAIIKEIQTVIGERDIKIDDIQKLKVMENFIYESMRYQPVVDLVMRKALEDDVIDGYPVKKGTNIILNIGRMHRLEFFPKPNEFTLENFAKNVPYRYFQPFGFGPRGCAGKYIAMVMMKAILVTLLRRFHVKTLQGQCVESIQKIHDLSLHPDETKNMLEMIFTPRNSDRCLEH", "assay": "Inhibition of human recombinant aromatase at 0.6 uM"}, "Aromatase [6]": {"target": "T1, Aromatase", "assay": "Inhibition of human recombinant aromatase at 10 uM"}, "Aromatase [7]": {"target": "T1, Aromatase", "assay": "Inhibition of human recombinant aromatase at 0.3 uM"}, "Aromatase [8]": {"target": "T1, Aromatase", "assay": "Inhibition of human recombinant aromatase at 3 uM"}, "Aromatase [9]": {"target": "T1, Aromatase", "assay": "Inhibition of human recombinant aromatase at 1 uM"}},
  "data": [
    {"smiles": "CC(C)c1cc(C=O)c2c(c1O)[C@H](O)[C@H]1C(C)(C)CCC[C@]21C", "values": [
      {"measurement": "inhibition", "setting": "human gammaherpesvirus 4 [1]", "value": 85.9, "unit": "%"},
      {"measurement": "inhibition", "setting": "human gammaherpesvirus 4 [2]", "value": 0, "unit": "%"},
      {"measurement": "inhibition", "setting": "human gammaherpesvirus 4 [3]", "value": 16.7, "unit": "%"},
      {"measurement": "inhibition", "setting": "human gammaherpesvirus 4 [4]", "value": 32, "unit": "%"}
    ]},
    {"smiles": "COc1c(O)c2c(c(O)c1C(C)C)C(=O)[C@@H]1C(C)(C)CCC[C@]21C", "note": "[TAIWANIAQUINOL B]", "values": [
      {"measurement": "EC50", "setting": "KB", "value": "> 10", "unit": "µM"}
    ]},
    {"smiles": "C[C@]12CCC(=O)C(O)=C1CC[C@@H]1[C@@H]2CC[C@]2(C)C(=O)CC[C@@H]12", "note": "[FORMESTANE]", "values": [
      {"measurement": "inhibition at 0.6 µM", "setting": "Aromatase [5]", "value": 63.7, "unit": "%"}
    ]},
    {"smiles": "CC(C)C1=C(O)C(=O)C2=C(C1=O)C(C=O)=C1C(C)(C)CCC[C@]21C", "note": "[TAIWANIAQUINONE D]", "values": [
      {"measurement": "EC50", "setting": "KB", "value": 7.2, "unit": "µM"}
    ]},
    {"smiles": "COC(=O)[C@H]1C2=C(C(=O)C(O)=C(C(C)C)C2=O)[C@@]2(C)CCCC(C)(C)[C@H]12", "note": "[TAIWANIQUINONE E]", "values": [
      {"measurement": "EC50", "setting": "KB", "value": "> 10", "unit": "µM"}
    ]},
    {"smiles": "N#Cc1ccc(C(c2ccc(C#N)cc2)n2cncn2)cc1", "note": "[LETROZOLE]", "values": [
      {"measurement": "inhibition at 10 µM", "setting": "Aromatase [6]", "value": 87.9, "unit": "%"},
      {"measurement": "inhibition at 0.3 µM", "setting": "Aromatase [7]", "value": 81.7, "unit": "%"},
      {"measurement": "inhibition at 3 µM", "setting": "Aromatase [8]", "value": 87.5, "unit": "%"}
    ]},
    {"smiles": "COC1=C(C(C)C)C(=O)C2=C(C1=O)[C@@]1(C)CCCC(C)(C)[C@@H]1C2", "note": "[TAIWANIAQUINONE G]", "values": [
      {"measurement": "EC50", "setting": "KB", "value": "> 10", "unit": "µM"}
    ]},
    {"smiles": "COc1cc([C@@H]2c3cc4c(cc3[C@@H](O[C@@H]3O[C@@H]5CO[C@@H](C)O[C@H]5[C@H](O)[C@H]3O)[C@H]3COC(=O)[C@H]23)OCO4)cc(OC)c1O", "note": "[ETOPOSIDE]", "values": [
      {"measurement": "EC50", "setting": "KB", "value": 1.1, "unit": "µM"}
    ]},
    {"smiles": "CC(=O)N1CCN(c2ccc(OCC3COC(Cn4ccnc4)(c4ccc(Cl)cc4Cl)O3)cc2)CC1", "note": "(configuration not stated) [KETOCONAZOLE]", "values": [
      {"measurement": "inhibition at 10 µM", "setting": "Aromatase [6]", "value": 92.5, "unit": "%"},
      {"measurement": "inhibition at 0.3 µM", "setting": "Aromatase [7]", "value": 89.3, "unit": "%"},
      {"measurement": "inhibition at 3 µM", "setting": "Aromatase [8]", "value": 83.8, "unit": "%"}
    ]},
    {"smiles": "COC1=C(C(C)C)C(=O)C2=C(C1=O)[C@@]1(C)CCCC(C)(C)C1=C2", "note": "[TAIWANIAQUINONE H]", "values": [
      {"measurement": "EC50", "setting": "KB", "value": "> 10", "unit": "µM"}
    ]},
    {"smiles": "COC1=C(C(C)C)C(=O)C2=C(C1=O)[C@@]1(C)CCCC(C)(C)[C@@H]1[C@H]2C=O", "note": "[TAIWANIAQUINONE]", "values": [
      {"measurement": "EC50", "setting": "KB", "value": 4.4, "unit": "µM"}
    ]},
    {"smiles": "COc1c(O)c2c(c(O)c1C(C)C)C(=O)[C@@H]1C(C)(C)C(=O)CC[C@]21C", "note": "[TAIWANIAQUINOL F]", "values": [
      {"measurement": "EC50", "setting": "KB", "value": "> 10", "unit": "µM"}
    ]},
    {"smiles": "COc1c(O)c2c(c(O)c1C(C)C)C(C=O)=C1C(C)(C)CCC[C@@]12C", "note": "[TAIWANIAQUINOL D]", "values": [
      {"measurement": "EC50", "setting": "KB", "value": 3.5, "unit": "µM"}
    ]},
    {"smiles": "CC(C)C1=C(O)C(=O)C2=C(C1=O)[C@H](C=O)[C@H]1C(C)(C)CCC[C@]21C", "note": "[TAIWANIQUINONE A]", "values": [
      {"measurement": "EC50", "setting": "KB", "value": 6.9, "unit": "µM"}
    ]},
    {"smiles": "CC(=O)Oc1c(C(C)C)cc(C=O)c2c1[C@H](OC(C)=O)[C@H]1C(C)(C)CCC[C@]21C", "note": "[STANDISHINAL DIACETATE]", "values": [
      {"measurement": "inhibition", "setting": "human gammaherpesvirus 4 [1]", "value": 84.5, "unit": "%"},
      {"measurement": "inhibition", "setting": "human gammaherpesvirus 4 [2]", "value": 0, "unit": "%"},
      {"measurement": "inhibition", "setting": "human gammaherpesvirus 4 [3]", "value": 11.1, "unit": "%"},
      {"measurement": "inhibition", "setting": "human gammaherpesvirus 4 [4]", "value": 30.5, "unit": "%"},
      {"measurement": "inhibition at 1 µM", "setting": "Aromatase [9]", "value": 38.6, "unit": "%"}
    ]},
    {"smiles": "CC[C@@H](C)CC[C@H]1[C@@H](C)CC[C@H]2C(C)(C)CCC[C@]12C", "values": [
      {"measurement": "inhibition", "setting": "human gammaherpesvirus 4 [1]", "value": 92.3, "unit": "%"},
      {"measurement": "inhibition", "setting": "human gammaherpesvirus 4 [2]", "value": 4.5, "unit": "%"},
      {"measurement": "inhibition", "setting": "human gammaherpesvirus 4 [3]", "value": 22.2, "unit": "%"},
      {"measurement": "inhibition", "setting": "human gammaherpesvirus 4 [4]", "value": 51.9, "unit": "%"}
    ]},
    {"smiles": "COc1c(O)c2c(c(O)c1C(C)C)[C@@H](C=O)[C@H]1C(C)(C)CCC[C@]21C", "note": "[TAIWANIAQUINOL C]", "values": [
      {"measurement": "EC50", "setting": "KB", "value": 8.1, "unit": "µM"}
    ]},
    {"smiles": "COc1c(O)c2c(c(O)c1C(C)C)C(=O)[C@H]1C(C)(C)CCC[C@]21C", "note": "[TAIWANIAQUINOL E]", "values": [
      {"measurement": "EC50", "setting": "KB", "value": "> 10", "unit": "µM"}
    ]},
    {"smiles": "CC(C)c1c(O)c2c(c3c1OCO3)[C@@]1(C)CCCC(C)(C)[C@@H]1[C@H]2C=O", "note": "[TAIWANIAQUINOL A]", "values": [
      {"measurement": "EC50", "setting": "KB", "value": 8.3, "unit": "µM"}
    ]},
    {"smiles": "CC1=C(/C=C/C(C)=C/C=C/C(C)=C/C=C/C=C(C)/C=C/C=C(C)/C=C/C2=C(C)CCCC2(C)C)C(C)(C)CCC1", "values": [
      {"measurement": "inhibition", "setting": "human gammaherpesvirus 4 [1]", "value": 91, "unit": "%"},
      {"measurement": "inhibition", "setting": "human gammaherpesvirus 4 [2]", "value": 0, "unit": "%"},
      {"measurement": "inhibition", "setting": "human gammaherpesvirus 4 [3]", "value": 18, "unit": "%"},
      {"measurement": "inhibition", "setting": "human gammaherpesvirus 4 [4]", "value": 66, "unit": "%"}
    ]}
  ]
}
